In US7629502B2, “Non-antibiotic selection marker genes” (Academia Sinica, priority 2006, dated 2009):
Entries after “also recorded” stand apart in the source; their conditions may differ.

Columns and labels:
Assay type in all cases: in vivo, Arabidopsis thaliana
wild-type Arabidopsis [1] = assay: Seedling survival of wild-type Arabidopsis on medium with 5MT or CdCl2; settings: for seedling survival rate: WT, surviving/seeds; for survival of wild type / non-transformed plants: medium containing 75 μM 5MT or 300 μM CdCl2; for optimum concentration for the selection of putative transformants: wild-type versus transgenic seedlings
Method: (§1) Arabidopsis thaliana (L.) Hyen. ecotype Columbia was grown in controlled environment chambers at 24° C., 70% relative humidity, with 24 h photoperiod (about 120 μmol m^−2s^−1). To transform Arabidopsis plants, we used the floral dip method described previously (Clough and Bent, 1998). To transgenic plants constitutively expressing AtTSB1, were selected on MS medium with 20 ppm hygromycin (Murashige and Skoog 1962). The sensitivity of wild type and transgenic T2 homozygous seeds (T3 generation) to different concentrations of 5MT and CdCl2 were assessed on the basis of the germination percentage of seedlings at the end of 2 weeks. After standardizing the optimal selection concentration of 5MT and CdCl2, the floral dip transformation was again performed to evaluate the selection efficiency between TSB1 and conventional hydromycin selection systems.
(§2) Different concentrations of 5MT (0, 25, 50, 75, 100 and 200 μM) and CdCl2 (0, 50, 100, 200, 300, 400 and 500 μM) were evaluated in order to select the transformants constitutively expressing AtTSB1 gene and in these experiments untransformed wild-types used as negative control. Sixty seeds of each wild-type and transgenic seeds were germinated on medium containing various concentrations of 5MT for 2 weeks, and the number of surviving plants recorded (Table 1). Under all the tested conditions, both wild-type and transgenic seeds could germinate almost equally. […] In the meantime, all seedlings on medium containing less than 50 μM 5MT survived selection even after 2 weeks. Thus, 75 μM 5MT is the optimum concentration for the selection of putative transformants.
(§3) A total of one hundred seeds each of wild-type and transgenic plants were germinated on medium containing different concentrations of CdCl2, for 2 weeks, and the survival was recorded (Table 2). The germination rate in wild-type and transgenic seedlings was almost equal on the medium containing CdCl2 concentrations up to 300 μM. […] All the wild-type and transgenic seedlings survived even after 2 weeks on medium containing CdCl2 less than 100 μM. From these observations, we concluded that 300 μM CdCl2 is the optimal concentration needed for selecting putative transformants.

[2] = test system: AtTSB1 transgenic Arabidopsis (TH); assay: Seedling survival of AtTSB1 transgenic (TH) Arabidopsis on medium with 5MT or CdCl2; settings: for seedling survival rate: TH, 2 weeks, surviving/seeds; for survival / growth of transgenic plants: medium containing 75 μM 5MT or 300 μM CdCl2
Method: as §1, §2, §3

wild-type Arabidopsis [3] = assay: Seedling survival of wild-type Arabidopsis on medium with 5MT or CdCl2; settings: WT, 1 week, surviving/seeds
[4] = test system: AtTSB1 transgenic Arabidopsis (TH); assay: Seedling survival of AtTSB1 transgenic (TH) Arabidopsis on medium with 5MT or CdCl2; settings: for seedling survival rate: TH, surviving/seeds
wild-type plants = assay: Free Trp content analysis (GC-MS), wild-type plants
Method: (§4) Two-week old wild-type and transgenic plants were harvested from germination medium with or without 50 μM 5MT. Endogenous free tryptophan analysis was performed described previously (Edlund et al., 1995) with some modification. Cell extracts were prepared from approximately 50 mg dry weight. Frozen tissues were ground with methanol under continuous shaking for 24 h at 4° C. After centrifuged, the supernatant was filtered by 0.22 μm membrane (Millipore Millexg). The filtered solution was reduced to 1 ml in a Speed Vac concentrator. The final solution was extracted by SEP column (Water Oasis HLB6 cc) and use 1 ml methanol to elute the extracts. Each 100 μl sample was methylated with 160 μl pyridine and 40 μl […]-N-trimethylsilyl-trifuoroacetamide at 70° C. for 1 hr. The GC-MS analysis was performed according to conditions described by Edlund et al (Edlund et al., 1995).
(§5) To elucidate the possible relation between the accumulation of free Trp content and resistance to 5MT and CdCl2, free Trp content was measured in AtTSB1 transgenic plants. […] The level in the transgenic plants TM1, TM3 and TM4 was 10- to 15-fold higher (5,900-8,900 pmole/g dry weight) than in wild-type plants (587 pmole/g dry weight). […] A similar trend was observed when TC3, TC4 and TC5 transgenic plants were measured for Trp content, with or without CdCl2.

[5] = test system: AtTSB1 transgenic plants (TM1, TM3, TM4); assay: Free Trp content analysis (GC-MS), TSB transgenic plants; settings: for Endogenous contents of tryptophan: two-week old plants
Method: as §4, §5

For `[Cl][Cd][Cl]` [CdCl2], the seedling survival rate (wild-type Arabidopsis [1]; CdCl2 50 μM, 1 week) was 100/100, the seedling survival rate (wild-type Arabidopsis [1]; CdCl2 50 μM, 2 weeks) was 100/100 and the seedling survival rate (wild-type Arabidopsis [1]; CdCl2 100 μM, 1 week) was 100/100. For the same compound, the seedling survival rate (wild-type Arabidopsis [1]; CdCl2 100 μM, 2 weeks) was 100/100, the seedling survival rate (wild-type Arabidopsis [1]; CdCl2 200 μM, 2 weeks) was 30/100 and the seedling survival rate (wild-type Arabidopsis [1]; CdCl2 300 μM, 2 weeks) was 0/100. The seedling survival rate (wild-type Arabidopsis [1]; CdCl2 400 μM, 2 weeks) was 0/100, the seedling survival rate (wild-type Arabidopsis [1]; CdCl2 500 μM, 1 week) was 8/100 and the seedling survival rate (wild-type Arabidopsis [1]; CdCl2 500 μM, 2 weeks) was 0/100. For the same compound, the “survival of wild type / non-transformed plants” value (wild-type Arabidopsis [1]) was “did not survive; also recorded: deteriorated”, the “optimum concentration for the selection of putative transformants” value (wild-type Arabidopsis [1]; 2 weeks) was 300 µM and the “growth of transgenic plants” value ([2]; 300 μM CdCl2, after 2 weeks) was “slightly inhibited”. The seedling survival rate ([2]; CdCl2 100 μM) was 100/100, the seedling survival rate ([2]; CdCl2 200 μM) was 95/100 and the seedling survival rate ([2]; CdCl2 300 μM) was 98/100. The seedling survival rate ([2]; CdCl2 500 μM) was 62/100, the “survival / growth of transgenic plants” value [2] was “grew and survived” and the seedling survival rate (wild-type Arabidopsis [3]; CdCl2 200 μM) was 100/100. For the same compound, the seedling survival rate (wild-type Arabidopsis [3]; CdCl2 300 μM) was 80/100, the seedling survival rate (wild-type Arabidopsis [3]; CdCl2 400 μM) was 12/100 and the “transgenic seedlings greener than controls” value ([4]; 300 μM CdCl2, after 2 weeks) was 98%. The seedling survival rate ([4]; CdCl2 50 μM, 1 week) was 100/100, the seedling survival rate ([4]; CdCl2 50 μM, 2 weeks) was 100/100 and the seedling survival rate ([4]; CdCl2 100 μM, 1 week) was 100/100. The seedling survival rate ([4]; CdCl2 200 μM, 1 week) was 100/100, the seedling survival rate ([4]; CdCl2 300 μM, 1 week) was 100/100 and the seedling survival rate ([4]; CdCl2 400 μM, 1 week) was 100/100. The seedling survival rate ([4]; CdCl2 400 μM, 2 weeks) was 80/100 and the seedling survival rate ([4]; CdCl2 500 μM, 1 week) was 100/100.
For `Cc1ccc2[nH]cc(C[C@H](N)C(=O)O)c2c1` [5MT, 5-methyl-tryptophan], the “growth of wild-type plants” value (wild-type Arabidopsis [1]; 75 μM and higher (100 and 200 μM) 5MT, after 2 weeks) was “turned pale green and ceased to grow”, the seedling survival rate (wild-type Arabidopsis [1]; 5MT 25 μM, 1 week) was 60/60 and the seedling survival rate (wild-type Arabidopsis [1]; 5MT 25 μM, 2 weeks) was 24/60. The seedling survival rate (wild-type Arabidopsis [1]; 5MT 50 μM, 1 week) was 60/60, the seedling survival rate (wild-type Arabidopsis [1]; 5MT 50 μM, 2 weeks) was 10/60 and the seedling survival rate (wild-type Arabidopsis [1]; 5MT 75 μM, 2 weeks) was 0/60. The seedling survival rate (wild-type Arabidopsis [1]; 5MT 100 μM, 2 weeks) was 0/60, the seedling survival rate (wild-type Arabidopsis [1]; 5MT 200 μM, 1 week) was 12/60 and the seedling survival rate (wild-type Arabidopsis [1]; 5MT 200 μM, 2 weeks) was 0/60. For the same compound, the “survival of wild type / non-transformed plants” value (wild-type Arabidopsis [1]) was “did not survive; also recorded: deteriorated”, the “optimum concentration for the selection of putative transformants” value (wild-type Arabidopsis [1]; 2 weeks) was 75 µM and the seedling survival rate ([2]; 5MT 25 μM) was 60/60. For the same compound, the seedling survival rate ([2]; 5MT 100 μM) was 34/60, the “survival / growth of transgenic plants” value [2] was “grew and survived” and the survival rate ([2]; transgenic seedlings, 75 μM 5MT) was 100%. For the same compound, the “Endogenous contents of tryptophan” value (wild-type plants; wild type + 5MT 50 μM, two-week old plants) was 125 ± 6 pmole/g g · DW, the “level of free Trp” value (wild-type plants; wild-type plants, 5MT in the medium) was 125 pmole/g dry weight and the “reduction of the level of free Trp” value (wild-type plants; wild-type plants, 5MT in the medium versus without) was “fivefold”. For the same compound, the “Endogenous contents of tryptophan” value ([5]; TM1 + 5MT 50 μM) was 5,200 ± 14 pmole/g g · DW, the “Endogenous contents of tryptophan” value ([5]; TM3 + 5MT 50 μM) was 5,100 ± 11 pmole/g g · DW and the “Endogenous contents of tryptophan” value ([5]; TM4 + 5MT 50 μM) was 7,200 ± 10 pmole/g g · DW. The “level of free Trp” value ([5]; transgenic plants TM1, TM3 and TM4, 5MT in the medium) was 5,100-7,200 pmole/g dry weight, the seedling survival rate (wild-type Arabidopsis [3]; 5MT 75 μM) was 60/60 and the seedling survival rate (wild-type Arabidopsis [3]; 5MT 100 μM) was 25/60. For the same compound, the seedling survival rate ([4]; 5MT 50 μM, 1 week) was 40/40, the seedling survival rate ([4]; 5MT 50 μM, 2 weeks) was 60/60 and the seedling survival rate ([4]; 5MT 75 μM, 1 week) was 60/60. For the same compound, the seedling survival rate ([4]; 5MT 75 μM, 2 weeks) was 60/60, the seedling survival rate ([4]; 5MT 100 μM, 1 week) was 60/60 and the seedling survival rate ([4]; 5MT 200 μM, 1 week) was 60/60. For the same compound, the seedling survival rate ([4]; 5MT 200 μM, 2 weeks) was 18/60 and the “resistance of transgenic seedlings” value ([4]; all concentrations of 5MT tested (100 and 200 μM)) was “showed resistance”.
